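In this assay, cells in 96-well plates receive the compound at five concentrations for 48 hours. Endpoints are linearly interpolated between the surrounding concentrations. Abbreviation: GI50, concentration required for 50% inhibition of growth.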 Active and inactive are the calls of the source. Rule as the data show it: active = GI50 up to about 1.1 µM and inactive = higher.
Tests used:
Experiment in all cases: growth of human tumour cells (NCI), 48 h
EKVX = test system: EKVX
HT-29 = test system: HT-29
ACHN = test system: ACHN
NCI-H460 = test system: NCI-H460
A549 = test system: A549
OVCAR-4 = test system: OVCAR-4
MDA-MB-231 = test system: MDA-MB-231
SW-620 = test system: SW-620
MDA-MB-435 = test system: MDA-MB-435
OVCAR-8 = test system: OVCAR-8
SF-268 = test system: SF-268
KM12 = test system: KM12
LOX IMVI = test system: LOX IMVI
HCT-15 = test system: HCT-15
Malme-3M = test system: Malme-3M
HOP-92 = test system: HOP-92
UACC-257 = test system: UACC-257
SF-539 = test system: SF-539
SK-MEL-2 = test system: SK-MEL-2
RXF 393 = test system: RXF 393

SMILES	GI50 (EKVX)	GI50 (HT-29)	GI50 (ACHN)	GI50 (NCI-H460)	GI50 (A549)	GI50 (OVCAR-4)	GI50 (MDA-MB-231)	GI50 (SW-620)	GI50 (MDA-MB-435)	GI50 (OVCAR-8)	GI50 (SF-268)	GI50 (KM12)	GI50 (LOX IMVI)	GI50 (HCT-15)	GI50 (Malme-3M)	GI50 (HOP-92)	GI50 (UACC-257)	GI50 (SF-539)	GI50 (SK-MEL-2)	GI50 (RXF 393)
CC(C)(C)OC(=O)Cn1ncn(NC(=O)Cc2ccccc2)c1=S	> 10 µM (inactive)	> 10 µM (inactive)	> 10 µM (inactive)	> 10 µM (inactive)	> 10 µM (inactive)	> 10 µM (inactive)	> 10 µM (inactive)	> 10 µM (inactive)	> 10 µM (inactive)	> 10 µM (inactive)	> 10 µM (inactive)	> 10 µM (inactive)	> 10 µM (inactive)	> 10 µM	> 10 µM (inactive)	> 10 µM (inactive)	> 10 µM (inactive)	> 10 µM (inactive)		
Cc1cc(=O)[nH]c2cc(NC(=O)C(C)NC(=O)C(C)NC(=O)C(C)NC(=O)OC(C)(C)C)ccc12 (configuration not stated)	> 15 µM (inactive)	> 15 µM (inactive)	> 15 µM (inactive)	> 15 µM (inactive)	> 15 µM (inactive)	> 15 µM (inactive)	> 15 µM (inactive)	> 15 µM (inactive)	> 15 µM (inactive)	> 15 µM (inactive)	> 15 µM (inactive)	> 15 µM (inactive)	> 15 µM (inactive)	> 15 µM		> 15 µM (inactive)	> 15 µM (inactive)	> 15 µM (inactive)	> 15 µM (inactive)	> 15 µM (inactive)
O=C(NC(CS)C(=O)O)c1c2ccccc2nc2ccccc12 (configuration not stated)	47.5 µM (inactive)	14.5 µM (inactive)	21.3 µM (inactive)	23.6 µM (inactive)	19.7 µM (inactive)	> 100 µM (inactive)	76.6 µM (inactive)	34 µM (inactive)	2.81 µM (inactive)	49.1 µM (inactive)	> 100 µM (inactive)	24.8 µM (inactive)	21.5 µM (inactive)	12.8 µM	15.2 µM (inactive)	> 100 µM (inactive)	13.7 µM (inactive)	> 100 µM (inactive)	47.8 µM (inactive)	
Cn1cnc([N+](=O)[O-])c1Sc1nncc2[nH]cnc12	> 100 µM (inactive)	> 100 µM (inactive)	> 100 µM (inactive)		> 100 µM (inactive)	> 100 µM (inactive)	> 100 µM (inactive)	> 100 µM (inactive)	> 100 µM (inactive)	> 100 µM (inactive)		> 100 µM (inactive)	> 100 µM (inactive)	> 100 µM	28.8 µM (inactive)	> 100 µM (inactive)	> 100 µM (inactive)	> 100 µM (inactive)	> 100 µM (inactive)	
CC(=O)O[C@H]1C(=O)[C@@]2(C)[C@H]([C@H](OC(=O)C3CCCCC3)[C@]3(O)C[C@H](OC(=O)[C@H](O)[C@@H](NC(=O)C4CCCCC4)C4CCCCC4)C(C)=C1C3(C)C)[C@]1(OC(C)=O)CO[C@@H]1C[C@@H]2O	5.61 µM (inactive)		0.168 µM (active)	0.00723 µM (active)	0.0326 µM (active)	0.538 µM (active)	0.0336 µM (active)	0.01 µM (active)	0.00256 µM (active)	0.0228 µM (active)	0.408 µM (active)	0.0101 µM (active)	0.0272 µM (active)	0.143 µM	0.0323 µM (active)	0.0427 µM (active)	0.0389 µM (active)	0.0366 µM (active)		0.0407 µM (active)
OCC(O)CNc1ncnc2ccccc12 (configuration not stated)	> 100 µM (inactive)	> 100 µM (inactive)	> 100 µM (inactive)	> 100 µM (inactive)	> 100 µM (inactive)	> 100 µM (inactive)	> 100 µM (inactive)	> 100 µM (inactive)	> 100 µM (inactive)	> 100 µM (inactive)	> 100 µM (inactive)	> 100 µM (inactive)	> 100 µM (inactive)	> 100 µM	> 100 µM (inactive)	> 100 µM (inactive)	> 100 µM (inactive)		> 100 µM (inactive)	> 100 µM (inactive)
COc1c(C)c(C/C=C(\C)CCCCO[Si](C(C)C)(C(C)C)C(C)C)c(OC)c2ccccc12	> 100 µM (inactive)	> 100 µM (inactive)	> 100 µM (inactive)	> 100 µM (inactive)	> 100 µM (inactive)	> 100 µM (inactive)	> 100 µM (inactive)	> 100 µM (inactive)	> 100 µM (inactive)	> 100 µM (inactive)	> 100 µM (inactive)	> 100 µM (inactive)	> 100 µM (inactive)	> 100 µM		> 100 µM (inactive)	> 100 µM (inactive)	> 100 µM (inactive)	> 100 µM (inactive)	> 100 µM (inactive)
N#Cc1c(-c2ccc(Cl)cc2)c(C#N)c(=O)n(NS(=O)(=O)c2ccccc2)c1-c1ccccc1			> 25 µM (inactive)	> 25 µM (inactive)	> 25 µM (inactive)	> 25 µM (inactive)	> 25 µM (inactive)	> 25 µM (inactive)	> 25 µM (inactive)				> 25 µM (inactive)	> 25 µM		> 25 µM (inactive)	> 25 µM (inactive)	> 25 µM (inactive)	> 25 µM (inactive)	> 25 µM (inactive)
Cc1ccc(S(=O)(=O)OI(O)CC(F)(F)F)cc1	> 100 µM (inactive)	> 100 µM (inactive)	> 100 µM (inactive)	> 100 µM (inactive)	> 100 µM (inactive)	> 100 µM (inactive)	> 100 µM (inactive)	> 100 µM (inactive)	> 100 µM (inactive)	> 100 µM (inactive)	> 100 µM (inactive)	> 100 µM (inactive)	> 100 µM (inactive)	> 100 µM		> 100 µM (inactive)	> 100 µM (inactive)	> 100 µM (inactive)	> 100 µM (inactive)	> 100 µM (inactive)
COC(=O)CC[N+]1([O-])CC1	> 100 µM (inactive)	> 100 µM (inactive)	> 100 µM (inactive)	> 100 µM (inactive)	> 100 µM (inactive)	> 100 µM (inactive)	> 100 µM (inactive)	> 100 µM (inactive)	> 100 µM (inactive)	> 100 µM (inactive)	> 100 µM (inactive)	> 100 µM (inactive)	> 100 µM (inactive)	> 100 µM	> 100 µM (inactive)	> 100 µM (inactive)	> 100 µM (inactive)	> 100 µM (inactive)		> 100 µM (inactive)
Nn1c(S)nnc1CCCCCCCCc1nnc(S)n1N	> 100 µM (inactive)	> 100 µM (inactive)	> 100 µM (inactive)	> 100 µM (inactive)	> 100 µM (inactive)	> 100 µM (inactive)	> 100 µM (inactive)	> 100 µM (inactive)	> 100 µM (inactive)	> 100 µM (inactive)	> 100 µM (inactive)	> 100 µM (inactive)		> 100 µM	> 100 µM (inactive)	> 100 µM (inactive)	> 100 µM (inactive)	> 100 µM (inactive)	> 100 µM (inactive)	> 100 µM (inactive)
Cn1cc(NC(=O)Nc2cc(C(=O)Nc3cc(C(=O)Nc4cc(S(=O)(=O)O)c5cc(S(=O)(=O)O)cc(S(=O)(=O)O)c5c4)n(C)c3)n(C)c2)cc1C(=O)Nc1cc(C(=O)Nc2cc(S(=O)(=O)O)c3cc(S(=O)(=O)O)cc(S(=O)(=O)O)c3c2)n(C)c1	31.9 µM (inactive)	> 100 µM (inactive)	> 100 µM (inactive)	> 100 µM (inactive)	> 100 µM (inactive)	> 100 µM (inactive)	> 100 µM (inactive)	> 100 µM (inactive)	> 100 µM (inactive)	> 100 µM (inactive)	> 100 µM (inactive)	> 100 µM (inactive)		> 100 µM	> 100 µM (inactive)	62.7 µM (inactive)	> 100 µM (inactive)	> 100 µM (inactive)		> 100 µM (inactive)
O=C(O)Cc1cccc2c(=O)c3ccccc3oc12	> 100 µM (inactive)	> 100 µM (inactive)	> 100 µM (inactive)	> 100 µM (inactive)	> 100 µM (inactive)	> 100 µM (inactive)	> 100 µM (inactive)	> 100 µM (inactive)	> 100 µM (inactive)	> 100 µM (inactive)	> 100 µM (inactive)	> 100 µM (inactive)	> 100 µM (inactive)	21.1 µM	> 100 µM (inactive)	> 100 µM (inactive)	> 100 µM (inactive)	> 100 µM (inactive)	27.3 µM (inactive)	
CC(C)CCC[C@@H](C)C1CCC2[C@@H]3CCC4CC(CCC=C(c5cc(Cl)c(OC(=O)c6ccccc6)c(C(=O)O)c5)c5cc(Cl)c(OC(=O)c6ccccc6)c(C(=O)O)c5)CC[C@]4(C)C3CC[C@@]21C (some centres not stated)	88.3 µM (inactive)	> 100 µM (inactive)	> 100 µM (inactive)	> 100 µM (inactive)	> 100 µM (inactive)	> 100 µM (inactive)	12.6 µM (inactive)	> 100 µM (inactive)	72.8 µM (inactive)	> 100 µM (inactive)		> 100 µM (inactive)		46.1 µM	64.7 µM (inactive)	28.1 µM (inactive)	58.2 µM (inactive)	> 100 µM (inactive)	> 100 µM (inactive)	> 100 µM (inactive)
COc1cccc2c1[C@H](OC)[C@]13O[C@@]1(C2=O)[C@H](O)[C@H](C)[C@@](O)(C(=O)[C@@H]1O[C@H]1C)[C@@H]3O	0.187 µM (active)		0.211 µM (active)		0.199 µM (active)	0.208 µM (active)	0.202 µM (active)	0.21 µM (active)	0.214 µM (active)	0.217 µM (active)	0.246 µM (active)	0.318 µM (active)	0.237 µM (active)	0.255 µM	0.169 µM (active)	0.194 µM (active)	0.225 µM (active)		0.175 µM (active)	0.245 µM (active)

— ChEMBL document CHEMBL1201862, “PubChem BioAssay data set” (2004)
